In the assay the target is T1, haematopoietic prostaglandin D synthase (H-PGDS) (Homo sapiens, UniProt O60760).
T1 construct: Full length human H-PGDS cDNA (Invitrogen Ultimate ORF 10H13026) was amplified by PCR; 6-His (N); TEV protease cleavage site (N); made in house; host or cells: E. coli BL21 (DE3*), vector pET22b+
Briefly: H-PGDS RapidFire high throughput mass spectrometry assay (conversion of PGH2 to PGD2). Type of assay: biochemical. Particulars: 10 nM H-PGDS, PGH2 formed in situ by COX-2 from arachidonic acid; read-out: Potency Range (mean pIC50) (converted). The gist of the method:
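RapidFire SPE–MS read-out calculated percent conversion from relative PGD2 and PGF2α (substrate surrogate) levels. Recombinant full-length human H-PGDS (His-tag, E. coli) turned over PGH2, produced in situ at ˜10 μM by human COX-2 (FLAG-tag, Sf9 cells) acting on arachidonic acid.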

Each structure is given as a SMILES string. Structures can show the parent of a compound that is named as a salt. Some results are limits rather than exact numbers.

T1 sequence (O60760 whole entry): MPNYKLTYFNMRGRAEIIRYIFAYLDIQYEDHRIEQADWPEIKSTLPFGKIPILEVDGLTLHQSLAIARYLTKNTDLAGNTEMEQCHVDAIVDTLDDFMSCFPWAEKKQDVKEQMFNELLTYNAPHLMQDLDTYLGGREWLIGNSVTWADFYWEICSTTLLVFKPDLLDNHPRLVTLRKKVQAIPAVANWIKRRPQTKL

Consider `O=C(Nc1nnc(C2CC2)s1)[C@H]1C[C@H](Oc2cccc3cccnc23)C1` [Example 199, (trans)-N-(5-Cyclopropyl-1,3,4-thiadiazol-2-yl)-3-(quinolin-8-yloxy)cyclobutanecarboxamide], for which the IC50 is 10 to 79.4 nM.

In the case of `O=C(NC1CN(c2cnccn2)C1)[C@H]1C[C@H](Oc2cc(F)cc3scnc23)C1` [Example 235, (trans)-3-((6-Fluorobenzo[d]thiazol-4-yl)oxy)-N-(1-(pyrazin-2-yl)azetidin-3-yl)cyclobutanecarboxamide], the IC50 was 10 to 79.4 nM.

In the case of `COc1ccc(Cl)cc1O[C@H]1C[C@H](C(=O)Nc2nc(C(C)=O)cs2)C1` [Example 274, (trans)-N-(4-Acetylthiazol-2-yl)-3-(5-chloro-2-methoxyphenoxy)cyclobutanecarboxamide], the IC50 is below 10 nM.

As to `O=C(N[C@H]1CC[C@H](N2CC(F)(F)C2)CC1)N1CC(Oc2cccc3scnc23)C1` [Example 57, 3-(Benzo[d]thiazol-4-yloxy)-N-((trans)-4-(3,3-difluoroazetidin-1-yl)cyclohexyl)azetidine-1-carboxamide], the IC50 is 100 to 1000 nM.

`CC(C)(O)[C@H]1CC[C@H](NC(=O)[C@H]2C[C@H](Oc3cc(Cl)ccc3OC(F)F)C2)CC1` [Example 273, (trans)-3-(5-Chloro-2-(difluoromethoxy)phenoxy)-N-((trans)-4-(2-hydroxypropan-2-yl)cyclohexyl)cyclobutanecarboxamide]: the IC50 is 10 to 79.4 nM.

On to `COc1ccc(F)cc1O[C@H]1C[C@H](C(=O)NC2CCN(C(=O)OC(C)(C)C)C2)C1` (mixture of isomers) [Example 143, tert-butyl 3-((trans)-3-(5-fluoro-2-methoxyphenoxy)cyclobutanecarboxamido)pyrrolidine-1-carboxylate], for which the IC50 was 10 to 79.4 nM.

For `COc1ccc(F)cc1O[C@H]1C[C@H](C(=O)NC2CCN(c3nccs3)CC2)C1` [Example 154, (trans)-3-(5-Fluoro-2-methoxyphenoxy)-N-(1-(thiazol-2-yl)piperidin-4-yl)cyclobutanecarboxamide], the IC50 is 10 to 79.4 nM.

Consider `C[C@]1(O)CC[C@H](NC(=O)N2CC(Oc3cccc4scnc34)C2)CC1` [Example 105, 3-(Benzo[d]thiazol-4-yloxy)-N-((trans)-4-hydroxy-4-methylcyclohexyl)azetidine-1-carboxamide], for which the IC50 was 100 to 1000 nM.

Turning to `O=C(N[C@H]1CC[C@H](N[C@@H](CO)C(F)(F)F)CC1)[C@H]1C[C@H](Oc2cc(F)ccc2OC(F)F)C1` [Example 20, (trans)-3-(2-(Difluoromethoxy)-5-fluorophenoxy)-N-((trans)-4-(((S)-1,1,1-trifluoro-3-hydroxypropan-2-yl)amino)cyclohexyl)cyclobutanecarboxamide], the IC50 is 10 to 79.4 nM.

Regarding `O=C(Nc1cccc(N2CCOCC2)c1)[C@H]1C[C@H](Oc2cccc3scnc23)C1` [Example 248, (trans)-3-(Benzo[d]thiazol-4-yloxy)-N-(3-morpholinophenyl)cyclobutanecarboxamide], the IC50 is 10 to 79.4 nM.

Regarding `CC(C)(O)[C@H]1CC[C@H](NC(=O)[C@H]2C[C@H](Oc3cc(F)cc4cccnc34)C2)CC1` [Example 295, (trans)-3-((6-Fluoroquinolin-8-yl)oxy)-N-((trans)-4-(2-hydroxypropan-2-yl)cyclohexyl)cyclobutanecarboxamide], the IC50 is 10 to 79.4 nM.

Regarding `O=C(Nc1nccs1)[C@H]1C[C@H](Oc2ccc(F)c3cccnc23)C1` [Example 291, (trans)-3-((5-Fluoroquinolin-8-yl)oxy)-N-(thiazol-2-yl)cyclobutanecarboxamide, trifluoroacetic acid salt], the IC50 was 100 to 1000 nM.

Consider `O=C(NC1CN(c2ccccn2)C1)[C@H]1C[C@H](Oc2cc(F)cc3scnc23)C1` [Example 137, (trans)-3-((6-Fluorobenzo[d]thiazol-4-yl)oxy)-N-(1-(pyridin-2-yl)azetidin-3-yl)cyclobutanecarboxamide], for which the IC50 was 10 to 79.4 nM.

Regarding `CC(O)(c1csc(NC(=O)[C@H]2C[C@H](Oc3cccc4cccnc34)C2)n1)C(F)(F)F` (mixture of isomers) [Example 187, Racemic (trans)-3-(Quinolin-8-yloxy)-N-(4-(1,1,1-trifluoro-2-hydroxypropan-2-yl)thiazol-2-yl)cyclobutanecarboxamide], the IC50 was 10 to 79.4 nM.

With `NC(=O)c1ccc(N2CC(NC(=O)[C@H]3C[C@H](Oc4cccc5scnc45)C3)C2)nc1` [Example 36, 6-(3-((trans)-3-(Benzo[d]thiazol-4-yloxy)cyclobutanecarboxamido)azetidin-1-yl)nicotinamide], the IC50 is 10 to 79.4 nM.

As for `COC(=O)C12CCC(NC(=O)N3CC(Oc4cccc5scnc45)C3)(CC1)CC2` [Example 327, Methyl 4-(3-(benzo[d]thiazol-4-yloxy)azetidine-1-carboxamido)bicyclo[2.2.2]octane-1-carboxylate], the IC50 is 10 to 79.4 nM.

On to `CC(C)(O)C(=O)N1CCC(NC(=O)[C@H]2C[C@H](Oc3cc(F)cc4scnc34)C2)CC1` [Example 303, (trans)-3-((6-Fluorobenzo[d]thiazol-4-yl)oxy)-N-(1-(2-hydroxy-2-methylpropanoyl)piperidin-4-yl)cyclobutanecarboxamide], for which the IC50 is 100 to 1000 nM.

As for `CC(=O)N1CCCC(NC(=O)N2CC(Oc3cccc4scnc34)C2)C1` (racemic) [Example 92, Racemic N-(1-Acetylpiperidin-3-yl)-3-(benzo[d]thiazol-4-yloxy)azetidine-1-carboxamide], the IC50 is 100 to 1000 nM.

For the compound `CC(C)(O)[C@H]1CC[C@H](NC(=O)[C@H]2C[C@H](Oc3cccc4scnc34)C2)CC1` [Example 109, (trans)-3-(Benzo[d]thiazol-4-yloxy)-N-((trans)-4-(2-hydroxypropan-2-yl)cyclohexyl)cyclobutanecarboxamide], the IC50 is 10 to 79.4 nM.

As for `COc1ccc(F)cc1O[C@H]1C[C@H](C(=O)NN2CCc3ccccc32)C1` [Example 146, (trans)-3-(5-Fluoro-2-methoxyphenoxy)-N-(indolin-1-yl)cyclobutanecarboxamide], the IC50 is 10 to 79.4 nM.

Regarding `CC(C(F)F)N1CCC(NC(=O)[C@H]2C[C@H](Oc3cc(F)ccc3OC(F)F)C2)CC1` (mixture of isomers) [Example 21, Racemic (trans)-3-(2-(Difluoromethoxy)-5-fluorophenoxy)-N-(1-(1,1-difluoropropan-2-yl)piperidin-4-yl)cyclobutanecarboxamide], the IC50 is 10 to 79.4 nM.

In the case of `O=C(Nc1nncs1)[C@H]1C[C@H](Oc2cccc3cccnc23)C1` [Example 216, (trans)-3-(Quinolin-8-yloxy)-N-(1,3,4-thiadiazol-2-yl)cyclobutanecarboxamide], the IC50 is 10 to 79.4 nM.

Take `CCOC(=O)Cc1nnc(NC(=O)[C@H]2C[C@H](Oc3cccc4ccoc34)C2)s1` [Example 263, Ethyl 2-(5-((trans)-3-(benzofuran-7-yloxy)cyclobutanecarboxamido)-1,3,4-thiadiazol-2-yl)acetate]: the IC50 was 10 to 79.4 nM.

On to `O=C(NC1CN(c2ncccn2)C1)N1CC(Oc2cccc3scnc23)C1` [Example 107, 3-(Benzo[d]thiazol-4-yloxy)-N-(1-(pyrimidin-2-yl)azetidin-3-yl)azetidine-1-carboxamide], for which the IC50 was 10 to 79.4 nM.

As for `O=C(NC1CN(c2ccc(F)cn2)C1)N1CC(Oc2cc(F)cc3scnc23)C1` [Example 119, 3-((6-Fluorobenzo[d]thiazol-4-yl)oxy)-N-(1-(5-fluoropyridin-2-yl)azetidin-3-yl)azetidine-1-carboxamide], the IC50 was 10 to 79.4 nM.

As to `CC1C(Oc2cc(F)cc3scnc23)CN1C(=O)N[C@H]1CC[C@H](C(C)(C)O)CC1` (mixture of isomers) [Example 236, Racemic 3-((6-Fluorobenzo[d]thiazol-4-yl)oxy)-N-((trans)-4-(2-hydroxypropan-2-yl)cyclohexyl)-2-methylazetidine-1-carboxamide], the IC50 is 10 to 79.4 nM.

As for `CCOC(=O)c1cnc(N2CC(NC(=O)[C@H]3C[C@H](Oc4cccc5scnc45)C3)C2)o1` [Example 48, Ethyl 2-(3-((trans)-3-(benzo[d]thiazol-4-yloxy)cyclobutanecarboxamido)azetidin-1-yl)oxazole-5-carboxylate], the IC50 is 100 to 1000 nM.

Turning to `O=C(Nc1nc(C2CC2)cs1)[C@H]1C[C@H](Oc2cccc3scnc23)C1` [Example 138, (trans)-3-(Benzo[d]thiazol-4-yloxy)-N-(4-cyclopropylthiazol-2-yl)cyclobutanecarboxamide], the IC50 is below 10 nM.

Turning to `O=C(Nc1nc(C2CC2)co1)[C@H]1C[C@H](Oc2cccc3cccnc23)C1` [Example 178, (trans)-N-(4-Cyclopropyloxazol-2-yl)-3-(quinolin-8-yloxy)cyclobutanecarboxamide], the IC50 is 10 to 79.4 nM.

`COc1ccc(F)cc1O[C@H]1C[C@H](C(=O)Nc2nc(C(C)=O)cs2)C1` [Example 163, (trans)-N-(4-Acetylthiazol-2-yl)-3-(5-fluoro-2-methoxyphenoxy)cyclobutanecarboxamide]: the IC50 was 10 to 79.4 nM.

Consider `CS(=O)(=O)c1ccc(NC(=O)N2CC(Oc3cccc4scnc34)C2)nc1` [Example 311, 3-(Benzo[d]thiazol-4-yloxy)-N-(5-(methylsulfonyl)pyridin-2-yl)azetidine-1-carboxamide], for which the IC50 is 10 to 79.4 nM.

Consider `CC(C)(C)OC(=O)N1CCC(NC(=O)N2CC(Oc3cccc4scnc34)C2)CC1` [Example 96, tert-butyl 4-(3-(benzo[d]thiazol-4-yloxy)azetidine-1-carboxamido)piperidine-1-carboxylate], for which the IC50 is 100 to 1000 nM.

Regarding `CC(C)c1csc(NC(=O)[C@H]2C[C@H](Oc3cccc4cccnc34)C2)n1` [Example 206, (trans)-N-(4-Isopropylthiazol-2-yl)-3-(quinolin-8-yloxy)cyclobutanecarboxamide], the IC50 was below 10 nM.

Values taken from patent US11053234B2 (GlaxoSmithKline Intellectual Property Development Limited, priority 2016, dated 2021).
